Test results taken from patent US20240409558A1, “IRREVERSIBLE INHIBITORS OF KRAS” (BIOMEA FUSION, INC., priority 2021, published 2024).

Test system: human KRAS G12C mutated cell line MIA PaCa-2
Test: Inhibition of proliferation of MIA PaCa-2 cells (CellTiter-Glo, 7 day)
Format: cell-based
Conditions: 168 h, Table 3, 7 day, mean, read-out: MIA PaCa-2 IC50 (μM) 7 day Mean
From the text: The present example evaluates the ability of compounds provided herein to inhibit proliferation of KRAS mutant cells.
The proliferation inhibitory effect was investigated in the human KRAS G12C mutated cell line MIA PaCa-2 (Yunis et al., 1977, Int. J. Cancer 19(1):128-135; ATCC catalog no. CRL-1420). Cells were maintained in RPMI-1640 medium (ThermoFisher catalog no. 61870036) supplemented with 10% of Heat Inactivated FBS (ThermoFisher catalog no. A31605) and 1% Pen-Strep (ThermoFisher catalog no. 10378016) and cultured at 37° C. in a humidified incubator with 5% CO2. Cell lines were grown by adhering to culture flasks, and the cells were maintained in a range 70%-80% confluency.
ATP is present in all metabolically active cells and is considered as a marker for cell viability and proliferation. Metabolic cell activity was determined using the CellTiter-Glo kit (Promega catalog no. G7572), an ATP monitoring system based on the production of luminescence by the reaction of ATP with added UltraGlo® recombinant luciferase (Kawano et al., 2016, PLOS One, 8; 11(7):e0158888), according to the supplier's experimental recommendations. The assay was based on a 96 well plate format.
Test compounds were dissolved at 10 mM in DMSO (Sigma catalog no. D8418; purity >99.9%) and stored at −20° C. Eight concentrations of test compound were assessed in duplicate in an individual test occasion in parallel in the selected cell lines. MRTX-849 and AMG-510 were used as reference compounds and tested in duplicate at eight concentrations. 100% of proliferation is represented by the untreated cells (0.2% DMSO).
(§1) On the day of the experiment (TO), cells were detached with TrypLE (ThermoFisher catalog no. 12604054) and quantified using the Vi-CELL XR Cell Viability (Beckman Coulter) analyzer and diluted with fresh medium to obtain the cell density of about 1000 cells per 200 μL medium. 200 μL of cell suspension were added into wells in the 96 well plate.
After 2 hours from seeding cells, compounds were added using a D300e compound dispenser (Tecan Trading AG) at desired concentrations with shaking between each compound dispensed. Cell plates containing 200 μL/well were incubated at 37° C. in a humidified incubator with 5% CO2.
On day T3, 150 μL of growth media per well were removed from plates containing the samples, 150 uL fresh growth media were added to each well, and fresh compounds were added using a D300e compound dispenser (Tecan Trading AG) at desired concentrations with shaking between each compound dispensed. Cell plates containing 200 uL/well were incubated at 37° C. in a humidified incubator with 5% CO2. On day T7 plates containing the samples were equilibrated at room temperature for approximately 15 min, and then 40 μL/well of the Promega CellTiterGlo® reagent was added. Contents were mixed for 30 minutes on an orbital shaker to induce cell lysis. Luminescence was read using a Synergy Neo 2 (Agilent Technologies.
Data was expressed as % of inhibition compared to the 0.2% DMSO negative control, and is calculated as follows: % inhibition=100−[(RLU sample)×100/(RLU controls*)], where * indicates the average for 0.2% DMSO. […]
as §1, with “12604054),” for “12604054) and”, “resuspended in” for “diluted with”, “at a” for “to obtain the”, “to each well of a” for “into wells in the”
Two hours after seeding cells, compounds were added at desired concentrations using a D300e compound dispenser (Tecan Trading AG) with shaking after each compound addition. Assay plates were incubated at 37° C. in a humidified incubator with 5% CO2.
On day 3 (T3) 150 μL of medium from assay plates were removed. 150 μL fresh medium and compounds were added at desired concentrations using a D300e compound dispenser (Tecan Trading AG) with shaking after each compound addition. […]

**Q.** With `C=CC(=O)N1CCN(c2nc(OC[C@@]34CCCN3C[C@H](F)C4)nc3cc(-c4cc(O)cc(Cl)c4C4CC4)cnc23)CC12CC2` [Compound 314, 1-[7-[7-(3-chloro-2-cyclopropyl-5-hydroxy-phenyl)-2-[[(2R,8S)-2-fluoro-1,2,3,5,6,7-hexahydropyrrolizin-8-yl]methoxy]pyrido[3,2-d]pyrimidin-4-y1]-4,7-diazaspiro[2.5]octan-4-yl]prop-2-en-1-one] as the molecule, how does the IC50 read?
**A.** > 1 µM

**Q.** For `C=CC(=O)N1CCN(c2nc(OC[C@@]34CCCN3C[C@H](F)C4)nc3cc(-c4cccc5cccc(Cl)c45)c(F)cc23)C2(CC2)C1` [Compound 315], which IC50 is on record?
**A.** > 1 µM

**Q.** For `C=CC(=O)N1CCN(c2nc(OC[C@@]34CCCN3C[C@H](F)C4)nc3cc(-c4cc(O)cc(Cl)c4C4CC4)c(F)cc23)C2(CC2)C1` [Compound 316, 1-[4-[7-(3-chloro-2-cyclopropyl-5-hydroxy-phenyl)-6-fluoro-2-[[(2R,8S)-2-fluoro-1,2,3,5,6,7-hexahydropyrrolizin-8-yl]methoxy]quinazolin-4-yl]-4,7-diazaspiro[2.5]octan-7-yl]prop-2-en-1-one], which IC50 is on record?
**A.** > 1 µM

**Q.** `C=CC(=O)N1CCN(c2nc(OC[C@@]34CCCN3C[C@H](F)C4)nc3cc(-c4cc(O)cc(Cl)c4C4CC4)c(F)cc23)CC12CC2` [Compound 317, 1-[7-[7-(3-chloro-2-cyclopropyl-5-hydroxy-phenyl)-6-fluoro-2-[[(2R,8S)-2-fluoro-1,2,3,5,6,7-hexahydropyrrolizin-8-yl]methoxy]quinazolin-4-yl]-4,7-diazaspiro[2.5]octan-4-yl]prop-2-en-1-one] was tested. Which IC50 did it give?
**A.** > 1 µM

**Q.** For `C=CC(=O)N1C[C@H]2C[C@@H]1CN2c1nc(OC[C@@]23CCCN2C[C@H](F)C3)nc2cc(-c3cc(O)cc(Cl)c3C3CC3)c(F)cc12` [Compound 318, 1-[(1R,4R)-5-[7-(3-chloro-2-cyclopropyl-5-hydroxy-phenyl)-6-fluoro-2-[[(2R,8S)-2-fluoro-1,2,3,5,6,7-hexahydropyrrolizin-8-yl]methoxy]quinazolin-4-yl]-2,5-diazabicyclo[2.2.1]heptan-2-yl]prop-2-en-1-one], which IC50 is on record?
**A.** > 1 µM

**Q.** How did the IC50 turn out when `C=CC(=O)N1CCN(c2nc(OC[C@@]34CCCN3C[C@H](F)C4)nc3cc(-c4cc(O)cc(Cl)c4C4CC4)cnc23)C2(CC2)C1` [Compound 319, 1-[4-[7-(3-chloro-2-cyclopropyl-5-hydroxy-phenyl)-2-[[(2R,8S)-2-fluoro-1,2,3,5,6,7-hexahydropyrrolizin-8-yl]methoxy]pyrido[3,2-d]pyrimidin-4-yl]-4,7-diazaspiro[2.5]octan-7-yl]prop-2-en-1-one] was run?
**A.** > 1 µM

**Q.** Which IC50 does the source give for `C=CC(=O)N1CCN(c2nc(OC[C@@]34CCCN3C[C@H](F)C4)nc3cc(-c4c(O)cccc4C4CC4)cnc23)[C@H](C)C1` [Compound 320, 1-[(3R)-4-[7-(2-cyclopropyl-6-hydroxy-phenyl)-2-[[(2R,8S)-2-fluoro-1,2,3,5,6,7-hexahydropyrrolizin-8-yl]methoxy]pyrido[3,2-d]pyrimidin-4-yl]-3-methyl-piperazin-1-yl]prop-2-en-1-one] here?
**A.** > 1 µM

**Q.** How did the IC50 turn out when `C=CC(=O)N1C2CCC1CN(c1nc(OC[C@@]34CCCN3C[C@H](F)C4)nc3cc(-c4cccc5cccc(Cl)c45)c(F)cc13)C2` [Compound 321, 1-[3-[7-(8-chloro-1-naphthyl)-6-fluoro-2-[[(2R,8S)-2-fluoro-1,2,3,5,6,7-hexahydropyrrolizin-8-yl]methoxy]quinazolin-4-y1]-3,8-diazabicyclo[3.2.1]octan-8-yl]prop-2-en-1-one] was run?
**A.** > 1 µM

**Q.** For `C=CC(=O)N1C[C@H]2C[C@@H]1CN2c1nc(OC[C@@]23CCCN2C[C@H](F)C3)nc2cc(-c3cccc4cccc(Cl)c34)c(F)cc12` [Compound 322, 1-[(1R,4R)-5-[7-(8-chloro-1-naphthyl)-6-fluoro-2-[[(2R,8S)-2-fluoro-1,2,3,5,6,7-hexahydropyrrolizin-8-yl]methoxy]quinazolin-4-y1]-2,5-diazabicyclo[2.2.1]heptan-2-yl]prop-2-en-1-one], which IC50 is on record?
**A.** > 1 µM

**Q.** For `C=CC(=O)N1CCN(c2nc(OC[C@@]34CCCN3C[C@H](F)C4)nc3cc(-c4cccc5cccc(Cl)c45)c(F)cc23)CC12CC2` [Compound 323], which IC50 is on record?
**A.** > 1 µM

**Q.** Which IC50 does the source give for `C=CC(=O)N1C2CCC1CN(c1nc(OC[C@@]34CCCN3C[C@H](F)C4)nc3cc(-c4cccc5cccc(Cl)c45)ccc13)C2` [Compound 324, 1-[3-[7-(8-chloro-1-naphthyl)-2-[[(2R,8S)-2-fluoro-1,2,3,5,6,7-hexahydropyrrolizin-8-yl]methoxy]quinazolin-4-y1]-3,8-diazabicyclo[3.2.1]octan-8-yl]prop-2-en-1-one] here?
**A.** > 1 µM

**Q.** Which IC50 does the source give for `C=CC(=O)N1CCN(c2nc(OC[C@@]34CCCN3C[C@H](F)C4)nc3cc(-c4c(O)cccc4C4CC4)c(F)cc23)[C@H](C)C1` [Compound 325, 1-[(3R)-4-[7-(2-cyclopropyl-6-hydroxy-phenyl)-6-fluoro-2-[[(2R,8S)-2-fluoro-1,2,3,5,6,7-hexahydropyrrolizin-8-yl]methoxy]quinazolin-4-yl]-3-methyl-piperazin-1-yl]prop-2-en-1-one] here?
**A.** 0.0112 µM

**Q.** How did the IC50 turn out when `C=CC(=O)N1C2CCC1CN(c1cc(OC[C@@]34CCCN3C[C@H](F)C4)nc3c(F)c(-c4cc(O)cc(Cl)c4C4CC4)ccc13)C2` [Compound 326] was run?
**A.** > 1 µM

**Q.** With `C=CC(=O)N1C2CCC1CN(c1nc(OC[C@@]34CCCN3C[C@H](F)C4)nc3c(F)c(N4CC(O)Cc5cccc(Cl)c54)ncc13)C2` (stereo partly drawn) [Compound 328, 1-[3-[7-(8-chloro-3-hydroxy-3,4-dihydro-2H-quinolin-1-yl)-8-fluoro-2-[[(2R,8S)-2-fluoro-1,2,3,5,6,7-hexahydropyrrolizin-8-yl]methoxy]pyrido[4,3-d]pyrimidin-4-yl]-3,8-diazabicyclo[3.2.1]octan-8-yl]prop-2-en-1-one] as the molecule, how does the IC50 read?
**A.** > 1 µM

**Q.** With `C=CC(=O)N1CCC(c2nc(OC[C@@]34CCCN3C[C@H](F)C4)nc3c(F)c(-c4cc(O)cc(Cl)c4C4CC4)ncc23)CC1` [Compound 329] as the molecule, how does the IC50 read?
**A.** 0.0144 µM

**Q.** For `C=CC(=O)N1CCC(c2nc(OC[C@@]34CCCN3C[C@H](F)C4)nc3c(F)c(-c4cc(O)cc5ccc(F)c(F)c45)ncc23)CC1` [Compound 330], which IC50 is on record?
**A.** 0.00664 µM

**Q.** For `C=CC(=O)N1CCC(c2nc(OC[C@@]34CCCN3C[C@H](F)C4)nc3c(F)c(-c4cc(O)cc5ccc(F)c(F)c45)ncc23)C[C@@H]1C` (stereo partly drawn) [Compound 331, 1-[(2S)-4-[7-(7,8-difluoro-3-hydroxy-1-naphthyl)-8-fluoro-2-[[(2R,8S)-2-fluoro-1,2,3,5,6,7-hexahydropyrrolizin-8-yl]methoxy]pyrido[4,3-d]pyrimidin-4-y1]-2-methyl-1-piperidyl]prop-2-en-1-one], which IC50 is on record?
**A.** 0.0373 µM

**Q.** With `C=CC(=O)N1CCC(CC)(c2nc(OC[C@@]34CCCN3C[C@H](F)C4)nc3c(F)c(-c4cc(O)cc(Cl)c4C4CC4)ncc23)CC1` [Compound 332, 1-[4-[7-(3-chloro-2-cyclopropyl-5-hydroxy-phenyl)-8-fluoro-2-[[(2R,8S)-2-fluoro-1,2,3,5,6,7-hexahydropyrrolizin-8-yl]methoxy]pyrido[4,3-d]pyrimidin-4-yl]-4-ethyl-1-piperidyl]prop-2-en-1-one] as the molecule, how does the IC50 read?
**A.** > 1 µM

**Q.** `C=CC(=O)N1C2CCC1CC(c1nc(OC[C@@]34CCCN3C[C@H](F)C4)nc3c(F)c(-c4cc(O)cc5ccc(F)c(F)c45)ncc13)C2` (some centres unmarked) [Compound 333] was tested. Which IC50 did it give?
**A.** 1.75 µM

**Q.** With `C=CC(=O)N1CCC(C)(c2nc(OC[C@@]34CCCN3C[C@H](F)C4)nc3c(F)c(-c4cc(O)cc(Cl)c4C4CC4)ncc23)CC1` [Compound 335] as the molecule, how does the IC50 read?
**A.** 0.858 µM
